Assay results published in paper PMC9979163, “Discovery and functional characterization of N-(thiazol-2-yl)-benzamide analogs as the first class of selective antagonists of the Zinc-Activated Channel (ZAC)” (Biochemical pharmacology, 2021).
Blank lines part the entries; values can stand above or below the compound they belong to.

How the values were obtained:
[1] = molecular target: Adenosine A2A receptor; parameters: method as in PMID 21210664; settings: Fig. 10; cited from earlier work
[2] = molecular target: metabotropic glutamate receptor 1; parameters: method as in PMID 19674894; settings: Fig. 10; cited from earlier work
[3] = molecular target: T1, ZAC (Homo sapiens, UniProt Q401N2); test: FMP assay at ZAC-HEK293 cells; assay type: cell-based; settings: ZAC-HEK293 cells, FMP assay, n = 4
T1 sequence (Q401N2 26-412): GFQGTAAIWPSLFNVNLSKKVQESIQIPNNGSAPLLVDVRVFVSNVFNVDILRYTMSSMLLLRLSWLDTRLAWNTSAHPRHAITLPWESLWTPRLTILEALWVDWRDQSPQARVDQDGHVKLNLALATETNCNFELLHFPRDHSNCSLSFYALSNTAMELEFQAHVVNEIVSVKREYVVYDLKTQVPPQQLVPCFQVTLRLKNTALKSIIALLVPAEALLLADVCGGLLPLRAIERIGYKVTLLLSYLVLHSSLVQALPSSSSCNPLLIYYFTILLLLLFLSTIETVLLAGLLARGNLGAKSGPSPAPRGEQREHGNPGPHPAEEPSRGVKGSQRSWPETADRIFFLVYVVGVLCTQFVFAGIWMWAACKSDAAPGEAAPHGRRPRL
Procedure: The screening of the 1,680 compounds in the compound library for antagonist activity at the ZAC-HEK293 cell line was performed in the FMP assay essentially as previously described. The day before the assay, cells were split into poly-D-lysine-coated black 96-well plates with clear bottoms (BD Biosciences, Palo Alto, CA) (6 × 10^4 cells/well). The following day, the culture medium was aspirated and the wells were washed once with 100 μl assay buffer (140 mM NaCl, 4.7 mM KCl, 2.5 mM CaCl2, 1.2 mM MgCl2, 11 mM HEPES, 10 mM D-glucose, pH 7.4), after which 100 μl assay buffer supplemented with FMP dye (0.5 mg/ml) and the various test compounds were added to the wells. The plate was then incubated at 37 °C for 30 min and assayed in a NOVOStar plate reader (BMG Labtechnologies, Offenburg, Germany) measuring emission at 560 nm caused by excitation at 530 nm before and up to 1 min after the addition of 33 μl of agonist solution. In the screening, the 1,680 compounds in the compound library were tested at assay concentrations in the 10–30 μM range, using Cu^2+ as agonist at an assay concentration of 200 μM.
Data from the FMP assay was analysed using KaleidaGraph 3.08 (Synergy Software, Reading, PA). Concentration-response curves for Cu^2+ and concentration-inhibition curves for compound 1 were constructed based on the difference in the relative fluorescence units (RFU) between the maximal fluorescence recorded before and after application of Cu^2+. The data were fitted to sigmoidal curves with variable slopes using nonlinear regression, and EC50 (Cu^2+) and IC50 (compound 1) values were derived from these equations.

[4] = molecular target: T2, h5-HT3A (Homo sapiens, UniProt P46098); test: FMP assay at h5-HT3A-HEK293 cells; assay type: cell-based; settings: concentrations up to 300 μM, data not shown
T2 construct: expressed in transfected cells
T2 sequence (P46098 24-478): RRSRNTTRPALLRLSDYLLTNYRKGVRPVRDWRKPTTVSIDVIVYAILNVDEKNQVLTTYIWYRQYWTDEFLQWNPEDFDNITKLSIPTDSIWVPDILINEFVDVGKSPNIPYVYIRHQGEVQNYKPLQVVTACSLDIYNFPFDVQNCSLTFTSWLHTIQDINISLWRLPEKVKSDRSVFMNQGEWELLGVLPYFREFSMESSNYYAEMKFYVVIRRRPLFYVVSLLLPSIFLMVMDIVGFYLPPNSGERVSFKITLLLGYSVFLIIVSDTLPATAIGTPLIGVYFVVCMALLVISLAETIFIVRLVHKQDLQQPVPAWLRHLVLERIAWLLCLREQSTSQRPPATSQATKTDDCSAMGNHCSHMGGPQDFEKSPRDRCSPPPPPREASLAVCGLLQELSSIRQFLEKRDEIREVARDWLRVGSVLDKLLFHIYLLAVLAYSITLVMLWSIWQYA

[5] = system: HEK293 cells; test: FMP assay at HEK293 cells; assay type: cell-based; settings: concentrations up to 300 μM, data not shown
[6] = system: urease; parameters: method as in PMID 30086567; settings: Fig. 10; cited from earlier work
[7] = molecular target: Adenosine A1 receptor; parameters: method as in PMID 11262085; settings: Fig. 10; cited from earlier work
[8] = system: Hec1/Nek2 interaction; parameters: method as in PMID 18922912; settings: Fig. 10; cited from earlier work
[9] = molecular target: T1, ZAC; settings: Zn2+ (1 mM) as agonist, TEVC; cited from earlier work
[10] = molecular target: glucokinase; parameters: method as in PMID 19282189; settings: Fig. 10; cited from earlier work
[11] = molecular target: necroptosis; parameters: method as in PMID 30400632; settings: Fig. 10; cited from earlier work
[12] = molecular target: stearoyl-CoA desaturase; parameters: method as in PMID 19541482; settings: Fig. 10; cited from earlier work

Structure (SMILES): CC(C)(C)CC(=O)Nc1c(F)cc(C(=O)Nc2nccs2)cc1F [Compound 28]
Ki [1]: 5.9 nM

Structure (SMILES): CC(C)Nc1cc(-c2csc(N(C)C(=O)c3ccc(F)cc3)n2)ncn1 [Compound 27]
IC50 [2]: 5.1 nM

pEC50 ± S.E.M. (agonist) [3]: 4.59 ± 0.17
EC50 ([3]; read-out: EC50 (agonist)): 26000 nM
Agonist response [4]: did not evoke any responses
Structure (SMILES): [Cl][Cu][Cl] [Cu^2+, CuCl2]
Agonist response [5]: did not evoke any responses

Structure (SMILES): O=C(Nc1nc(Cc2nnc(SCc3ccc(F)cc3)o2)cs1)c1ccccc1 [Compound 7h]
IC50 [6]: 2200 nM

Structure (SMILES): COc1ccc(C(=O)Nc2nc(-c3ccccc3)cs2)cc1 [LUF5433]
IC50 [7]: 32 nM

Structure (SMILES): Cc1ccc(-c2csc(NC(=O)c3ccccc3)n2)c(C)c1 [INH1]
IC50 [8]: in uM range

Structure (SMILES): COc1cc2c3cc1Oc1cc(ccc1O)C[C@@H]1c4c(cc(OC)c(O)c4Oc4ccc(cc4)C[C@@H]3N(C)CC2)CC[N+]1(C)C [TC, tubocurarine]
Fitted inhibition range [9]: ~ 94%

Structure (SMILES): Cc1csc(NC(=O)c2cc(Oc3ccc(S(C)(=O)=O)cc3)cc(OC(C)C)c2)n1 [Compound 27e]
EC50 [10]: 330 nM

Structure (SMILES): CCn1c(SCc2ccc(C(=O)Nc3nccs3)cc2)nnc1-c1ccc(N)cc1 [NTB451]
Ki [11]: 7900 nM

Structure (SMILES): CCNc1ccc(C(=O)Nc2ncc(Cc3cccc(C(F)(F)F)c3)s2)cc1OCCO [Compound 37c]
IC50 [12]: 0.04 nM
